For 4 molecules, Kd and affinity constant results are on record in paper PMC5550883, “Binding of doxorubicin to Sorcin impairs cell death and increases drug resistance in cancer cells” (Cell Death & Disease, 2017).

Test [1] addresses T1, Sorcin (Homo sapiens, UniProt P30626).
T1 construct: gene SRI; full-length wild type; immobilized by amine coupling for SPR; homodimer
T1 sequence (P30626 1-198): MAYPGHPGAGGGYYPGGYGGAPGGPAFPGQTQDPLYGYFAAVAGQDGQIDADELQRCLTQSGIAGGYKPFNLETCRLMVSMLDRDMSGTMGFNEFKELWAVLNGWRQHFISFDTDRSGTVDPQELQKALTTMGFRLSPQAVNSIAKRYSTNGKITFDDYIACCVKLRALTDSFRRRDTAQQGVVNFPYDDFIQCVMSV
As to the kind of experiment: SPR (OneStep), immobilized Sorcin. Type of test: binding. The settings on record: HEPES 20 mM pH 7.4, NaCl 150 mM, 2% DMSO, 25 C; CaCl2 or EDTA not told.

The target of test [2] is T2, Sorcin calcium-binding domain (SCBD) (Homo sapiens, UniProt P30626).
T2 construct: gene SRI; dimer
T2 sequence (P30626 32-198): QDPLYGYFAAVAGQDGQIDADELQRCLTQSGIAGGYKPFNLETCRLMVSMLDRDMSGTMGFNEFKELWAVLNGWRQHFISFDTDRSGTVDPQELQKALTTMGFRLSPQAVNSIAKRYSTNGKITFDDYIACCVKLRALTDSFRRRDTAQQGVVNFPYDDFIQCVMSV
As to the kind of experiment: intrinsic tryptophan/tyrosine fluorescence quenching titration (ex […] nm), two-site fit. The settings on record: Tris-HCl 10 mM pH 7.5, 0.5 uM EDTA, 25 C; stronger of two sites; unreliable (KD1 below protein concentration, large errors).

Test [3] addresses T1, Sorcin. As to the kind of experiment: SPR, immobilized Sorcin, one-site fit. Type of test: binding.

One may read the Kd as the free concentration of one partner at which half of the binding sites on the other are occupied at equilibrium, for simple one-to-one binding. For `CC(=O)O[C@H]1C(=O)[C@@]2(C)[C@H]([C@H](OC(=O)c3ccccc3)[C@]3(O)C[C@H](OC(=O)[C@H](O)[C@@H](NC(=O)c4ccccc4)c4ccccc4)C(C)=C1C3(C)C)[C@]1(OC(C)=O)CO[C@@H]1C[C@@H]2O` [paclitaxel], the Kd result on Sorcin [1] was “Sorcin is able to bind doxorubicin, paclitaxel and vinblastine, with high affinity”.
For the molecule `CC[C@]1(O)C[C@@H]2CN(CCc3c([nH]c4ccccc34)[C@@](C(=O)OC)(c3cc4c(cc3OC)N(C)[C@H]3[C@@](O)(C(=O)OC)[C@H](OC(C)=O)[C@]5(CC)C=CCN6CC[C@]43[C@@H]65)C2)C1` [vinblastine], on Sorcin [1], the Kd result was “Sorcin is able to bind doxorubicin, paclitaxel and vinblastine, with high affinity”.
Regarding `COc1cccc2c1C(=O)c1c(O)c3c(c(O)c1C2=O)C[C@@](O)(C(=O)CO)C[C@@H]3O[C@H]1C[C@H](N)[C@H](O)[C@H](C)O1` [doxorubicin], the affinity constant in test [2] is 1.4 ± 1 nM.
Molecule `[NH2][Pt]([NH2])([Cl])[Cl]` [cisplatin] registered a Kd at Sorcin [3] of 1.7 µM. This lies in the single-digit micromolar range.
